Results: patent US5462926A (Biomeasure, Inc., priority 1993, dated 1995)
Read-outs that look alike come from different tables or passages of the source. Where a SMILES comes first, the peptide text is derived from it. Bridges are numbered along the chain shown (N, C = ends). Where no end group is shown, it is not given here. [ ]: non-standard residue; d: D form. 2Nal = N[C@@H](Cc1ccc2ccccc2c1)C(=O)O; Lys(Et2) = CCN(CC)CCCC[C@H](N)C(=O)O

Experiments:
[1] = biological target: T1, rat NMB receptor (Rattus norvegicus, UniProt P24053); assay: Binding of 125I-[D-Tyr0]NMB to NMB-R transfected BALB 3T3 cells
T1 construct: a full length NMB-preferring bombesin receptor clone generated from rat esophagus; expressed in transfected cells
T1 sequence (P24053 1-390): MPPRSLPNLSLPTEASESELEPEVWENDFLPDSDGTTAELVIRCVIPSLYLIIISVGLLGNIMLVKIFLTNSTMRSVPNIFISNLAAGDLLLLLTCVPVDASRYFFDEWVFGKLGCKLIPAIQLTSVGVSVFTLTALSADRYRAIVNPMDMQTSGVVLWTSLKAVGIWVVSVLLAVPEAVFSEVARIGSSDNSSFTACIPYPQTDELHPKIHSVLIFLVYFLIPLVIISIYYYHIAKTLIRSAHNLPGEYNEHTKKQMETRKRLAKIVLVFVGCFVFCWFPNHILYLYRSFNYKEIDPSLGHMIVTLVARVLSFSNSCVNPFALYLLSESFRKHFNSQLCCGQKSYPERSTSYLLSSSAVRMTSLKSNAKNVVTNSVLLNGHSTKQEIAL
Experimental: (§1) Cells were passaged every 3-4 days at confluence, using 0.1% trypsin in 1 mM EDTA. Rat glioblastoma C-6 tumor cells were maintained similarly and were passaged weekly at confluence. Both cell lines were cultured at 37° C. in a 5% CO2 atmosphere. Rat AR 42J pancreatic acinar cells were cultured in Dulbecco's modified Eagle's medium (DMEM) without antibiotics and supplemented with 10% (vol/vol) fetal calf serum. The incubation atmosphere consisted of 10% CO2 -90% humidified air at 37° C.

[2] = biological target: T2, GRP receptors on rat pancreatic acini (Rattus norvegicus, UniProt P52500); assay: Binding of 125I-[Tyr4]bombesin to pancreatic acini; conditions: read-out: Ki 125I-[Tyr4]Bn Binding, GRP Receptor, Rat Pancreatic Acini; Ki by Cheng method
T2 construct: from tissue; host or cells: dispersed pancreatic acini
Excerpt: Nonsaturable binding was<10% of total binding in all experiments.

[3] = biological target: T3, NMB receptor (Rattus norvegicus, UniProt P24053); assay: [3H]inositol phosphates in NMB-R transfected cells (alone or NMB-stimulated); type: cell-based; set-up: a full length NMB-preferring bombesin receptor clone generated from rat esophagus; expressed in transfected cells; conditions: NMB-R transfected cells; for IC50: 3 nM NMB
T3 sequence (P24053 1-390): T1 sequence (P24053 1-390)
Experimental: as §1, with “As described previously [Wada, E., et al. Neuron 6:421 (1991)], BALB 3T3 cells expressing a stably transfected rat NMB receptor (NMB-R transfected cells) were obtained using calcium phosphate precipitation of a full length NMB-preferring bombesin receptor clone generated from rat esophagus and subcloned into a modified version of the pCD2 plasmid. Cells” for “Cells”
Measurement of phosphoinositides
Total phosphoinositides in C-6 cells and in NMB-R transfected cells were determined as described previously, with minor modifications [Benya, R. V. et al. Mol. Pharmacol. 42:1058 (1992); and Wang, L-H. et al. Biochem. Jo 286:641 (1992)]. Cells were grown to confluence in 24-well plates and then loaded with 100 μCi/ml myo-[2-^3 H]inositol in Dulbecco's modified essential medium with 2% fetal bovine serum at 37° C. for 48 hrs. Cells were washed and incubated in phosphoinositide buffer (standard buffer additionally containing 10 mM LiCl, 20 mM HEPES, 2 mM CaCl2, 2% BSA, and 1.2 mM MgSO4) for 15 min and then for 60 min at 37° C. with agonists at various concentrations or with 3 nM NMB (a half-maximal effective concentration) and possible antagonists at different concentrations. Reactions were halted using ice-cold 1% HCl in methanol, and the inositol phosphates (IP) were isolated as described previously [Bologna, M. et al. Cancer 63:1714 (1989); and Endo, T. et al. J. Endocrinolo 131:313 (1991)]. Briefly, after loading of the anion exchange column, free [^3 H]glycerophosphorylinositol was removed by washing with 5 mM disodium tetraborate in 60 mM sodium formate. Total [^3 H]inositol phosphates were then eluted using 100 mM formic acid in 1.0M ammonium formate as described previously [Benya, R. V. et al. Mol. Pharmacol. 42:1058 (1992); and Wang, L-H. et al. Biochem. J. 286:641 (1992 )].

[4] = biological target: T4, NMB receptors on C-6 cells (Rattus norvegicus, UniProt P24053); assay: Binding of 125I-[D-Tyr0]NMB to C-6 glioblastoma cells; conditions: Ki by Cheng method, read-out: Ki 125I-NMB Binding, NMB Receptor, C-6 Cells
T4 construct: endogenous in cells; host or cells: rat glioblastoma C-6 cells
T4 sequence (P24053 1-390): T1 sequence (P24053 1-390)
Experimental: Binding of ^125 I-[D-Tyr^0 ]NMB to C-6 glioblastoma and NMB-R transfected cells
Binding studies using rat glioblastoma C-6 or NMB-R transfected cells were performed as described previously [Benya, R. V. et al. Mol. Pharmacol. 42:1058 (1992); and Wang, L-H. et al. Biochem. J. 286:641 (1992)] by suspending disaggregated cells in binding buffer, which was composed of standing buffer ([…], 7.7 mM KCl, 1.0 mM EGTA, 0.02% soybean trypsin inhibitor) additionally containing 50 mM HEPES, 1 mM MgCl2, 1.5 mM CaCl2, 2.2 mM KH2 PO4, 0,015% glutamine, and 0.2% BSA (w/v) (pH 7.4). Incubations contained 75 pM ^125 I-[D-Tyr^0 ]NMB and 15×10^6 C-6 cells/ml or 2×10^6 NMB-R transfected cells/ml, for 60 min at 22° C. Nonsaturable binding of ^125 I-[D-Tyr^0 ]NMB was the amount of radioactivity associated with C-6 cells or NMB-R transfected cells when the incubation mixture contained […] NMB. Nonsaturable binding was<15% of total binding in all experiments; all values are reported herein as saturable binding (i.e., total minus nonsaturable binding).

[5] = biological target: T5, GRP receptor (Rattus norvegicus, UniProt P52500); assay: Amylase release from rat pancreatic acini (alone or Bn-stimulated); type: cell-based; set-up: from tissue; host or cells: dispersed pancreatic acini
Experimental: pancreatic acini or [^3 H]myo[2H]inositolloaded NMBR transfected cell
were incubated either with no additives, the somatostatin octapeptide
analog, Bn, or NMB, or a combination for 30 min at 37° C.. Amylase
release from pancreatic acini was expressed at the indicated percent of
the total cellular amylase released during the incubation. [^3 H]IP i
expressed in dpm's. To test for inhibitory effects, the effect of
somatostatin analog (10 μM) was determined on 0.3 nM Bnstimulated

[6] = biological target: T3, NMB receptor; assay: NMB membrane receptor assay, 125I-NMB, rat olfactory bulb membranes; type: binding; set-up: Membranes were prepared from rat olfactory bulb (NMB membrane receptor assay); from tissue; host or cells: rat olfactory bulb membranes; conditions: Cheng method; unit inferred; read-out: affinity, 125I-NMB, Rat Olfactory bulb membranes (neuromedin B receptors)
[7] = biological target: T5, GRP receptor; assay: GRP membrane receptor assay, 125I-[Tyr4]Bn, AR 42J cell membranes; type: binding; set-up: endogenous in cells; host or cells: rat AR 42J pancreatic acinar tumor cell membranes; conditions: read-out: affinity, 125I-[Tyr4]Bn, AR 42J Cell Membranes (GRP receptors); Cheng method; unit inferred
[8] = biological target: T6, mu opioid receptors (Rattus norvegicus, UniProt P33535); assay: Mu opioid membrane assay, [3H]DAGO, rat forebrain membranes; type: binding; conditions: Cheng method; unit inferred; read-out: affinity, [3H]DAGO, Rat Forebrain membranes (mu opioid receptors)
T6 construct: rat forebrain (TRH, mu and delta opioid membrane assays); from tissue; host or cells: rat forebrain membranes

[9] = biological target: T7, somatostatin receptors (Rattus norvegicus, UniProt P30680); assay: Somatostatin membrane receptor assay, 125I-[Tyr11]SS-14, AR 42J cell membranes; type: binding; conditions: Cheng method; table prints no unit (b360 gives nM for a Table 4 value); read-out: affinity, 125I-[Tyr11]SS-14, AR 42J Cell Membranes (somatostatin receptors)
T7 construct: endogenous in cells; host or cells: rat AR 42J pancreatic acinar tumor cell membranes
T7 sequence (P30680 whole entry): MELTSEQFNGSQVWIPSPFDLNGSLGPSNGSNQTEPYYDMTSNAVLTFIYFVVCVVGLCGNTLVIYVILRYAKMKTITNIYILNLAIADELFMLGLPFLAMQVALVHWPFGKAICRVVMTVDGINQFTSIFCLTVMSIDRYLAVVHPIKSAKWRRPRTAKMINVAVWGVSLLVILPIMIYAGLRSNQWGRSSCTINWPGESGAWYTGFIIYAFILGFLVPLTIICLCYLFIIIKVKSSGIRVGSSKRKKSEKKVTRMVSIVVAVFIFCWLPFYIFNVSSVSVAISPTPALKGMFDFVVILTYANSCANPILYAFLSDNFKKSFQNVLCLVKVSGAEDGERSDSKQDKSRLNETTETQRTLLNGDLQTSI

T5 sequence (P52500 whole entry): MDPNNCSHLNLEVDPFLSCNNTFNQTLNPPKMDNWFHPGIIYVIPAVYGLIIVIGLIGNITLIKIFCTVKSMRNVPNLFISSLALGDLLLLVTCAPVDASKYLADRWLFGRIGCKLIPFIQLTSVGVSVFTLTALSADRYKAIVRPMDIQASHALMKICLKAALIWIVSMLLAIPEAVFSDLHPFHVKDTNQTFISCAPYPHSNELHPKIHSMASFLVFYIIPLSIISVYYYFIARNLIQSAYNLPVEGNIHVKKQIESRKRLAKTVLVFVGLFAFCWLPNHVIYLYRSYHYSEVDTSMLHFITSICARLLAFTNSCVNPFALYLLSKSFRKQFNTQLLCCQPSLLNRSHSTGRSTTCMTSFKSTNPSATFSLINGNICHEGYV
T6 sequence (P33535 whole entry): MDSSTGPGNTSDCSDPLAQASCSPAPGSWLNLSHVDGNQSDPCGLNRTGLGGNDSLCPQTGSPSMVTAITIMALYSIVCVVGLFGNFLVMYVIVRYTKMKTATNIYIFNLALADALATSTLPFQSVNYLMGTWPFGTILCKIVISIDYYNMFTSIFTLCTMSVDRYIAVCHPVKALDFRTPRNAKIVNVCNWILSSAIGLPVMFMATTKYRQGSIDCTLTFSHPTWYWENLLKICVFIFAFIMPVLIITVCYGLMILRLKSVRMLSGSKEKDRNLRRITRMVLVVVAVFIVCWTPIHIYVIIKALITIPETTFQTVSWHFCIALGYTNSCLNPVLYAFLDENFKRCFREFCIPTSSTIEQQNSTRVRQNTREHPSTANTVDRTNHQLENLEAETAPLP
T2 sequence (P52500 whole entry): as the sequence (P52500 whole entry) above

Compound	Ki ([1]; NMB-R transfected BALB 3T3 cells, Ki by Cheng method, read-out: Ki 125I-NMB Binding, NMB Receptor, Transfected Cells) [µM]	fold by which cyclo SS-octa is more potent than the analog, 125I-NMB binding ([1]; NMB-R transfected cells) [fold]	Ki ([1]; NMB-R transfected cells, value or range given for a group, read-out: K1, 125I-NMB binding to NMB-R transfected cells (text)) [µM]	Ki [2] [µM]	IC50 ([3]; read-out: IC50 NMB-stimulated [3H]IP, NMB Receptor, Transfected Cells) [µM]	IC50 ([3]; read-out: IC50 NMB-stimulated [3H]IP, Transfected Cells (values in μM)) [µM]	[3H]IP, analog Alone (10 μM) ([3]; analog 10 μM alone, control 13 ± 3) [dym × 10^3]	[3H]IP, analog Plus NMB (3 nM) ([3]; analog 10 μM plus NMB 3 nM, NMB without analog 186 ± 58) [dym × 10^3]	Ki [4] [µM]	Amylase Release, analog Alone (10 μM) ([5]; analog 10 μM alone, control 4 ± 1) [% total]	Amylase Release, analog Plus Bn (0.3 nM) ([5]; analog 10 μM plus Bn 0.3 nM, Bn without analog 15 ± 1) [% total]	IC50 ([5]; read-out: IC50 Amylase Release, GRP Receptor, Rat Pancreatic Acini) [µM]	Ki [6] [µM]	Ki [7] [µM]	Kd ([1]; NMB-R transfected cells, read-out: Kd of NMB for NMB receptors without cyclo SS-octa) [µM]	Ki [8] [µM]	Ki [9] [nM]
CCN(CC)CCCC[C@@H]1NC(=O)[C@@H](Cc2c[nH]c3ccccc23)NC(=O)[C@H](Cc2ccc(O)cc2)NC(=O)[C@@H](NC(=O)[C@H](N)Cc2ccccc2)CSSC[C@@H](C(=O)N[C@@H](Cc2ccc3ccccc3c2)C(N)=O)NC(=O)[C@H]([C@@H](C)O)NC1=O [Analog #16, H2 -D-Phe-Cys-Tyr-D-TrP-Lys(diEt)-Thr-Cys-Nal-NH2] (H-[dF]CY[dW][Lys(Et2)]TC[2Nal]-NH2; disulfide 2-7)	3.95 ± 0.509	18	3.9 to 4.4	> 10	7.21 ± 2.79	7.2 to 9.8	11 ± 2	73 ± 15	1.09 ± 0.038	5 ± 1	12 ± 1	> 10					
CSCC[C@H](NC(=O)[C@H](Cc1ccccc1)NC(=O)[C@H](Cc1c[nH]cn1)NC(=O)CNC(=O)[C@@H](NC(=O)[C@H](C)NC(=O)[C@H](Cc1c[nH]c2ccccc12)NC(=O)[C@H](CC(C)C)NC(=O)[C@H](CC(N)=O)NC(=O)CN)[C@@H](C)O)C(N)=O [NMB, neuromedin B, reference compound]													0.0011 ± 0.0002	0.019 ± 0.001	0.0031 ± 0.0002	> 10	> 10000
gastrin-releasing peptide (VPLPAGGGTVLTKMYPRGNHWAVGHLM; ends and bridges not checked; UniProt P07492 24-50, looked up) [GRP, mammalian bombesin-related peptide, from Peninsula Laboratories, reference compound]													0.297 ± 0.015			> 10	> 10000
